# US20160305924A1 (LAGUNA PHARMACEUTICALS , INC., priority 2013, published 2016)
# Experiments:
# Assay type in all cases: in vivo, human
# [1] = Example 5: adverse events
# Source text: (§1) The vanoxerine or identical appearing placebo was randomly assigned and administered in a double-blinded fashion.
# [2] = system: recent onset symptomatic AF/AFL; assay: Example 5: double-blinded placebo-controlled study, conversion to sinus rhythm
# Source text: as §1
# [3] = Example 2: daily doses for 11 consecutive days, PK and hemodynamics
# [4] = Example 3: daily doses for 14 days after a standardized meal, serum levels and adverse events
# Experimental: A standardized meal was served 15 minutes prior to each dosing.
# [5] = Example 4: daily doses for 7 days, hemodynamics and steady state; settings: 50, 100, 150 mg daily, all patients
# [6] = Example 1: plasma concentrations of vanoxerine and metabolites after a 300 mg dose (LC-MS/MS); settings: for High concentration group average (plasma concentration): 10 patients high concentration group; for Low concentration group average (plasma concentration): 15 patients low concentration group; for Concentrations (plasma): mean of 25 patients
# Experimental: Each patient gave samples before administration of their dose, and then again at nine further time points, 30 minutes after administration, 1, 2, 3, 4, 6, 8, 12, and 24 hours post administration.
# Evaluation of samples: A total of 270 human plasma samples were received (in duplicate). The samples were shipped frozen over dry ice. The samples were stored at −70° C. (nominal) until analysis.
# Frozen samples were thawed at room temperature. Samples, calibrators, QC samples, sample blanks (blank plasma) and reagent blanks (water) were processed at room temperature. To 200 μL aliquots of each sample, calibrator, and QC sample are added 20 μL of 500 ng/mL of internal standard solution. A sample blank (blank plasma) and reagent blank (water) were also prepared, but without addition of internal standard solution (20 μL of diluent was added instead). To each sample, 200 μL of 1% ammonium hydroxide solution were added and vortex mixed. 3.0 mL of methyl tert-butyl ether were added and then vortex mix for 30 seconds. The sample is then centrifuged for 5 minutes at 4000 rpm and then transferred for about 30 minutes at −70° C. (nominal). The upper (organic) layer was transferred into an evaporation tubes and then evaporated under N2 stream at −50° C. for about 20 min. Samples were then reconstituted in 1000 μL reconstitution solution (80:20:0.1 water: acetonitrile: formic acid). Samples were mixed, allow to stand for about 3 minutes and mixed again. 900 μL of the sample solution was transferred to a 1.5 mL microcentrifuge tube and centrifuged for 5 minutes at 14000 rpm at room temperature. 800 μL of the sample solution was transferred to a glass autosampler vial, and then transferred to the autosampler for analysis. Samples were separated using reversed-phase liquid chromatography with a C18 column.
# Chromatographic conditions were as follows: • HPLC instrument: Waters Alliance e2795 HT with temperature controlled autosampler • Column: Waters XBridge C18 3.5μ 100×2.1 mm P.N. 186003022, Lot No. 0143302711 with an appropriate guard column • Column temperature: 45° C. • Autosampler temp. 5° C. • Flow: 0.3 mL/min • Mobile phase A: 10 mM ammonium formate buffer:MeOH:ACN 80:10:10 • Mobile phase B: 10 mM ammonium formate buffer:MeOH:ACN 5:50:45 • Purge solvent: Water:ACN:formic acid 50:50:0.1 • Wash solvent: Water:ACN:formic acid 50:50:0.1 • Injection volume: 20 μL • Run Time: 15 minutes
# Detection was based on electro-spray interface in positive mode (ESI+) LC-MS/MS technique, using Micromass Quattro Premier XE MS/MS detector with MassLynx and QuanLynx software version 4.1. […] The MRM transition for all hydroxyl metabolites was m/z 467→203.
# [7] = 0.5 h post administration, 1.00 = below LLOQ
compound,measurement,setting,value
"Fc1ccc(C(OCCN2CCN(CCCc3ccccc3)CC2)c2ccc(F)cc2)cc1 [Vanoxerine, 1-[2-[bis(4-fluorophenyl)methoxy]ethyl]-4-(3-phenylpropyl)piperazine]",Adverse events: serious adverse events,[1]; 200 mg (22),1 SAE
same,Adverse events: subjects reporting,[1]; 200 mg (22),4 (18%) subjects (%)
same,Adverse events: subjects reporting,[1]; 300 mg (25),7 (28%) subjects (%)
same,Adverse events: serious adverse events,[1]; 400 mg (25),1 SAE
same,Adverse events: subjects reporting,[1]; 400 mg (25),10 (40%) subjects (%)
same,tolerability,"[1]; 200, 300, 400 mg",well tolerated at all doses
same,Efficacy: Percent conversion,"[2]; 200 mg (22), 0-4 hr",18%
same,Efficacy: Percent conversion,"[2]; 200 mg (22), 0-8 hr",45%
same,Efficacy: Percent conversion,"[2]; 200 mg (22), 0-24 hr",59%
same,Efficacy: Percent conversion,"[2]; 300 mg (25), 0-4 hr",40%
same,Efficacy: Percent conversion,"[2]; 300 mg (25), 0-8 hr",52%
same,Efficacy: Percent conversion,"[2]; 300 mg (25), 0-24 hr",64%
same,Efficacy: Percent conversion,"[2]; 400 mg (25), 0-4 hr",52%
same,Efficacy: Percent conversion,"[2]; 400 mg (25), 0-8 hr",76%
same,Efficacy: Percent conversion,"[2]; 400 mg (25), 0-24 hr",84%
same,"time to conversion to normal sinus rhythm, majority of patients",[2]; at a Cmax plasma concentration of more than 40 ng/ml,under 12 hours
same,T1/2 range,[3]; 50 mg daily for 11 days,(4.71-110.57) hr
same,T1/2 range,[3]; 75 mg daily for 11 days,(10.26-116.67) hr
same,steady state reached,"[3]; 50, 75 and 100 mg daily",≤ 8 days
same,Tmax,"[3]; human, plasma, printed in the Dose column under 50 mg, read-out: TMax range",0.5 to 2 h
same,steady-state serum levels versus dose,"[4]; 25, 75, 125 mg daily",disproportionately and statistically greater levels at higher doses
same,adverse events,"[4]; 25, 75, 125 mg daily for 14 days, healthy patients",No significant adverse events
same,steady state levels achieved,[5],within one week
17-hydroxyl vanoxerine [M01],High concentration group average (plasma concentration),"[6]; 2 h, 1.00 = below LLOQ",28.00 ng/mL
same,Low concentration group average (plasma concentration),"[6]; 8 h, 1.00 = below LLOQ",5.30 ng/mL
same,Concentrations (plasma),[6]; [7],1.93 ng/mL
same,Concentrations (plasma),"[6]; 1 h, 1.00 = below LLOQ",7.51 ng/mL
same,Concentrations (plasma),"[6]; 2 h, 1.00 = below LLOQ",19.65 ng/mL
same,Concentrations (plasma),"[6]; 3 h, 1.00 = below LLOQ",18.68 ng/mL
same,Concentrations (plasma),"[6]; 4 h, 1.00 = below LLOQ",16.42 ng/mL
same,Concentrations (plasma),"[6]; 6 h, 1.00 = below LLOQ",11.48 ng/mL
same,Concentrations (plasma),"[6]; 8 h, 1.00 = below LLOQ",8.98 ng/mL
same,Concentrations (plasma),"[6]; 12 h, 1.00 = below LLOQ",6.30 ng/mL
same,Concentrations (plasma),"[6]; 24 h, 1.00 = below LLOQ",3.66 ng/mL
16-hydroxyl vanoxerine [M02],High concentration group average (plasma concentration),"[6]; 0.5 h, 1.00 = below LLOQ",1.00 ng/mL
same,High concentration group average (plasma concentration),"[6]; 1 h, 1.00 = below LLOQ",1.00 ng/mL
same,High concentration group average (plasma concentration),"[6]; 6 h, 1.00 = below LLOQ",1.00 ng/mL
same,High concentration group average (plasma concentration),"[6]; 8 h, 1.00 = below LLOQ",1.00 ng/mL
same,High concentration group average (plasma concentration),"[6]; 12 h, 1.00 = below LLOQ",1.00 ng/mL
same,High concentration group average (plasma concentration),[6]; 24 h,0.00 ng/mL
same,Low concentration group average (plasma concentration),"[6]; 0.5 h, 1.00 = below LLOQ",1.00 ng/mL
same,Low concentration group average (plasma concentration),"[6]; 2 h, 1.00 = below LLOQ",1.00 ng/mL
same,Low concentration group average (plasma concentration),"[6]; 3 h, 1.00 = below LLOQ",1.00 ng/mL
same,Low concentration group average (plasma concentration),"[6]; 4 h, 1.00 = below LLOQ",1.00 ng/mL
same,Low concentration group average (plasma concentration),"[6]; 6 h, 1.00 = below LLOQ",1.00 ng/mL
same,Low concentration group average (plasma concentration),"[6]; 8 h, 1.00 = below LLOQ",1.00 ng/mL
same,Low concentration group average (plasma concentration),"[6]; 12 h, 1.00 = below LLOQ",1.00 ng/mL
same,Low concentration group average (plasma concentration),"[6]; 24 h, 1.00 = below LLOQ",1.00 ng/mL
same,Concentrations (plasma),[6]; [7],1.00 ng/mL
same,Concentrations (plasma),"[6]; 1 h, 1.00 = below LLOQ",1.02 ng/mL
same,Concentrations (plasma),"[6]; 2 h, 1.00 = below LLOQ",1.02 ng/mL
same,Concentrations (plasma),"[6]; 3 h, 1.00 = below LLOQ",1.01 ng/mL
same,Concentrations (plasma),"[6]; 4 h, 1.00 = below LLOQ",1.01 ng/mL
same,Concentrations (plasma),"[6]; 6 h, 1.00 = below LLOQ",1.00 ng/mL
same,Concentrations (plasma),"[6]; 8 h, 1.00 = below LLOQ",1.00 ng/mL
same,Concentrations (plasma),"[6]; 12 h, 1.00 = below LLOQ",1.00 ng/mL
same,Concentrations (plasma),"[6]; 24 h, 1.00 = below LLOQ",1.00 ng/mL
